Like-named read-outs stand apart in the source and are kept apart here.
How the values were obtained:
[1] = Chemical stability in human blood plasma; format: in vitro ADME; settings: pooled human blood plasma; 10 μm; 4 hours at 37° C.; substance amount remaining
Method in brief: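 Pooled plasma from ten healthy donors was spiked to 10 μM from a 10 mM DMSO stock and held 4 h at 37 °C. After acetonitrile protein precipitation, HPLC peak areas before and after incubation gave the percentage of compound remaining.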

[2] = tested on: H1975 (lung adenocarcinoma, DM, L828R/T790M); test: Antiproliferative activity on H1975 cells (Alamar Blue); format: cell-based; settings: for IC50: Homo sapiens, NCI-H1975, H1975 cells; for SI IC50(A549)/IC50(DM): selectivity index, A549 vs H1975 cells
Method in brief: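 H1975 cells (15*10^3/well) attached 16-18 h in RPMI-1640 with 2% FBS, then exposed to compounds (≤1% DMSO final) for 72 h at 37 °C. Viability by Alamar Blue fluorescence (Ex 540/Em 590 nm) after 3-5 h; IC50 from four-parameter logistic fit.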

[3] = tested on: HCC827 (lung adenocarcinoma, SM, exon19delE746-A750); test: Antiproliferative activity on HCC827 cells (Alamar Blue); format: cell-based; settings: Homo sapiens, antiproliferative test
Method in brief: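 HCC827 cells (EGFR exon19del E746-A750), 10×10^3/well, attached 16–18 h, then exposed to compounds for 72 h at 37 °C in RPMI-1640 with 2% FBS, ≤1% DMSO. Viability by Alamar Blue fluorescence (ex 540/em 590 nm) after 3–5 h; IC50 by four-parameter logistic fit.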

[4] = Enzyme stability in human liver S9 fractions; format: in vitro ADME; settings: 0.5 mg/mL pooled human liver S9 fractions; 10 μM compound; 37° C.; pH 7.4; read-out: Stability in liver S9 fractions, Clint
Method in brief: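 Compound at 10 μM was incubated at 37 °C with 0.5 mg/mL pooled human liver S9, 2 mM β-NAD and 4 mM MgCl2 in 0.1 M sodium phosphate, pH 7.4, then quenched with acetonitrile and analysed chromatographically. T½ and CLint were derived from the slope of log peak area versus time.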

[5] = Chemical stability in simulated gastric fluid (SGF); format: physicochemical; settings: SGF without enzymes, pH 1,4; 10 μm; 2 hours at 37° C.; substance amount remaining
Method in brief: (§1)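 Compound at 10 μm (diluted from 10 mM DMSO stock) incubated 2 h at 37° C in enzyme-free SGF, pH=1,4, or enzyme-free SIF, pH=6.5. HPLC peak areas before and after incubation give % compound remaining.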

[6] = Chemical stability in simulated intestinal fluid (SIF); format: physicochemical; settings: SIF without enzymes, pH 6.5; 10 μm; 2 hours at 37° C.; substance amount remaining
Method in brief: as §1

[7] = tested on: A549 (lung adenocarcinoma, WT); test: Antiproliferative activity on A549 cells (Alamar Blue); format: cell-based; settings: Homo sapiens, antiproliferative test
Method in brief: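 Cells seeded at 5*10^3/well in RPMI-1640 with 2% FBS, attached 16-18 h at 37° C, then exposed to compounds (≤1% DMSO) for 72 h. Alamar Blue added for 3-5 h; fluorescence read at 540/590 nm. IC50 from four-parameter logistic fit.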

[8] = average values obtained in several tests, Table 16, read-out: H1975 (DM) IC50
[9] = antiproliferative test, Table 15, read-out: IC50 H1975 (DM)

| Stability in blood plasma, % [1] | IC50 [2, 8] | IC50 [2, 9] | IC50 [3] | Intrinsic clearance in human liver S9 fractions at 10 µM [4] | Stability in SGF, % [5] | Stability in SIF, % [6] | IC50 [7] | Compound | SI IC50(A549)/IC50(DM) [2] |
| --- | --- | --- | --- | --- | --- | --- | --- | --- | --- |
| 78.4% | 34.6 nM | 34.6 nM | 19.1 nM | 14.5 µL/min/mg | 100.0% | 98.2% | 8140 nM | C=CC(=O)Nc1cc(Nc2nccc(C(=O)c3ccc(OCC)cc3OCC)n2)c(OC)cc1N(C)CCN(C)C [EGFR_3365_68, N-(5-((4-(2,4-diethoxybenzoyl)pyrimidin-2-yl)amino)-2-((2-(dimethylamino)ethyl) (methyl)amino)-4-methoxyphenyl)acrylamide] | 235 |
| 100.0% | 7.9 nM | 7.93 nM | 2.46 nM | 14.4 µL/min/mg | 100.0% | 100.0% | > 10000 nM | C=CC(=O)Nc1cc(Nc2nccc(C(=O)c3ccc(OC)cc3OC)n2)c(OC)cc1N(C)CCN(C)C [EGFR_3365_69, N-(5-((4-(2,4-dimethoxybenzoyl)pyrimidin-2-yl)amino)-2-((2-(dimethylamino)ethyl)(methyl)amino)-4-methoxyphenyl)acrylamide] | >1261 |
| 90.0% | 203 nM | 203 nM | 36.8 nM | 0.7 µL/min/mg | 100.0% | 98.6% | 4390 nM | C=CC(=O)Nc1cc(Nc2nccc(C(=O)c3ccc(OCCC)cc3OCCC)n2)c(OC)cc1N(C)CCN(C)C [EGFR_3365_70, N-(2-((2-(dimethylamino)ethyl)(methyl)amino)-5-((4-(2,4-dipropoxybenzoyl)pyrimidin-2-yl)amino)-4-methoxyphenyl)acrylamide] | 22 |
| 94.6% | 11.5 nM | 11.5 nM | 13.5 nM | 20.2 µL/min/mg | 100.0% | 91.5% | 10700 nM | C=CC(=O)Nc1cc(Nc2nccc(C(=O)c3ccc(N(CC)CC)cc3)n2)c(OC)cc1N(C)CCN(C)C [EGFR_3365_72, N-(5-((4-(4-(diethylamino)benzoyl)pyrimidin-2-yl)amino)-2-((2-(dimethylamino)ethyl)(methyl)amino)-4-methoxyphenyl)acrylamide] | 932 |
| 90.5% | 9.5 nM | 10.3 nM | 4.47 nM | 11.1 µL/min/mg | 100.0% | 100.0% | 16000 nM | C=CC(=O)Nc1cc(Nc2nccc(C(=O)c3ccc(N(C)C)cc3)n2)c(OC)cc1N(C)CCN(C)C [EGFR_3365_73, N-(5-((4-(4-(dimethylamino)benzoyl)pyrimidin-2-yl)amino)-2-((2-(dimethylamino)ethyl) (methyl)amino)-4-methoxyphenyl)acrylamide] | 1678 |
| 100.0% | 138 nM | 138 nM | 18 nM | 17.8 µL/min/mg | 100.0% | 98.4% | 1410 nM | C=CC(=O)Nc1cc(Nc2cc(C(=O)c3ccc(-c4cnn(C)c4)cc3)ccn2)c(OC)cc1N(C)CCN(C)C [EGFR_3365_85, N-(2-((2-(dimethylamino)ethyl)(methyl)amino)-4-methoxy-5-((4-(4-(1-methyl-1H-pyrazol-4-yl)benzoyl)pyridin-2-yl)amino)phenyl) acrylamide] | 10 |
